Test results: US20260356846A1, “STATIN DERIVATIVES AND METHODS OF USING THE SAME” (The General Hospital Corporation, priority 2023, published 2026)
Read-outs that look alike come from different tables or passages of the source.

Columns and labels:
[1] = test system: STMN2 (WT STMN2-NLuc SH-SY5Y cells); experiment: STMN2 nanoluciferase assay in WT SH-SY5Y cells (Table A: WT TDP-32; Table B: WT HD Luciferase); type: cell-based, human; conditions: WT cell line; for maximal fold induction: Emax
Protocol: (§1) Neuroblastoma cells (ATCC) were cultured in DMEM/F12 (Gibco) supplemented with 10% fetal-bovine serum (Omega) and 1% penicillin-streptomycin (Gibco) at 37 °C with 5% CO2. For knockdown experiments, cells were transfected with SMARTpool ON-TARGETplus siRNA or control siRNA pool (D001810-10) (GE Dharmacon) at a final concentration of 50 nM, for 96 h in two doses (0, 24 h), after complexing with Lipofectamin RNAiMAX (Invitrogen) in Opti-MEM (Gibco) for 10 min.
(§2) WT and TDP-mut (N352S) SH-SY5Y cells were edited using CRISPR-Cas9 to express Nanoluciferase at the C-terminus of both endogenous STMN2 alleles. A single guided RNA targeting STMN2 C-terminus was designed (Benchling webtool) and cloned into pSpCas9-2A-green fluorescent protein (GFP) plasmid (px458-Addgene) using the BbsI restriction site. The sequence for guided RNA targeting STMN2 was: […]. For the repair template, overlapping fragments of 800 bp STMN2 homology arms flanking Nanoluciferase (NLuc, Promega) were generated and ligated into pUC57 backbone. A 42 bp GS-linker was also included 5′ to NLuc to prevent steric hindrance of the reporter to the final STMN2 exon. Fragments were ligated using Gibson Assembly and nucleofected simultaneously with pSpCas9-2A-GFP-gRNA plasmid using the Amaxa Nucleofector (assay A-023). Forty-eight hours following electroporation, cells were collected, and GFP-positive cells sorted and single-cell seeded into 96-well plates using the SH800S Sony cell sorter. Individual clones were expanded and DNA was extracted for PCR amplification of the STMN2 Ex5 genomic locus using primers within NLuc and outside the STMN2 5′ homology arm to confirm presence of the insert. The entire STMN2 coding region and all exon-intron junctions (>500-bp length of each intronic region) were then sequenced to verify the absence of any additional DNA alteration. qPCR analysis was performed with a wild-type isogenic SH-SY5Y cell line that had undergone the mutagenesis attempt but not acquired the insertion mutation during the original screening process.
(§3) TDP-mut STMN2-NLuc SH-SY5Y cells were used in small-molecule screening at ICCB-Longwood. 3000 cells/well were plated in white 384-well plates using a 50 ul sample volume. 24 hours after plating, compounds were added using 100 nl pin transfer. 24 hours later, 25 ul NLuc assay was added to each well according to manufacturer instructions (Promega, Cat #). Plates were shaken for 1 min prior to luminescence readings using EnVision2 machine. DMSO-only and WT STMN2-NLuc cells were included as negative and positive controls respectively on each plate, producing an average Z′score of ~0.7 across the screen. Each library plate was conducted in duplicate, and Z-scores calculated for each compound. For subsequent validation experiments, cell numbers in each well were quantified by hoescht staining at 1 μg/ml for 15 mins at 37C in black, clear bottom plates, prior to imaging at 4× using automated microscopy (ImageXpressMicro). Nuclei were then counted using a custom algorithm, and luciferase assay run as above. Luminescence results were then normalised against cell counts as RLU/cell.
(§4) Each compound was tested in triplicate in log doses ranging 0.01 μM−10 μM. The values are represented in luminescence normalized to the number of cells in the well, wherein darker grey correlates to higher RLU per cell and higher STMN2 protein expression.

[2] = test system: STMN2 (TDP-mut (N352S) STMN2-NLuc SH-SY5Y cells); experiment: STMN2 nanoluciferase assay in TDP-43 mutant SH-SY5Y cells (Table A: mut TDP-43; Table B: mut HD Luciferase); type: cell-based, human; conditions: mutant TDP-43 cell line
Protocol: as §1, §2, §3, §4

[3] = Homo sapiens, SH-SY5Y, Table B, read-out: EC50, WT HD Luciferase
[4] = Homo sapiens, SH-SY5Y, Table B, read-out: EC50, mut HD Luciferase
[5] = Homo sapiens, SH-SY5Y, Table A, read-out: EC50, WT TDP-32
[6] = Homo sapiens, SH-SY5Y, Table A, read-out: EC50, mut TDP-43

| SMILES | EC50 ([1]; Table B, read-out: EC50, WT HD Luciferase) | EC50 ([2]; Table B, read-out: EC50, mut HD Luciferase) | EC50 [1, 3] | EC50 [2, 4] | EC50 [1, 5] | EC50 [2, 6] | maximal fold induction ([1]; Homo sapiens, SH-SY5Y, Table B) | HD Luciferase (mut, Emax) ([2]; Table B) |
| --- | --- | --- | --- | --- | --- | --- | --- | --- |
| Cc1cc2c(-c3ccc(F)cc3)c(/C=C/[C@@H](O)C[C@@H](O)CC(=O)O)c(C3CC3)nc2s1 [Example I-5a, (3R,5S,E)-7-(6-cyclopropyl-4-(4-fluorophenyl)-2-methylthieno[2,3-b]pyridin-5-yl)-3,5-dihydroxyhept-6-enoic acid] | ≥ 500 nM | ≥ 500 nM | – | – | – | – | 1 to 1.25 | * (means≥1 and <1.25) |
| Cc1cc(F)ccc1-c1c(/C=C/[C@@H](O)C[C@@H](O)CC(=O)O)c(C2CC2)nc2c(C)csc12 [Example I-13, (3R,5S,E)-7-(5-cyclopropyl-7-(4-fluoro-2-methylphenyl)-3-methylthieno[3,2-b]pyridin-6-yl)-3,5-dihydroxyhept-6-enoic acid] | – | – | 10 to 50 nM | 10 to 50 nM | – | – | – | – |
| Cc1nc2c(-c3ccc(F)cc3)c(/C=C/[C@@H](O)C[C@@H](O)CC(=O)O)c(C3CC3)nc2s1 [Example I-3, (3R,5S,E)-7-(5-cyclopropyl-7-(4-fluorophenyl)-2-methylthiazolo[5,4-b]pyridin-6-yl)-3,5-dihydroxyhept-6-enoic acid] | – | – | ≥ 500 nM | ≥ 500 nM | ≥ 10000 nM | 5000 to 10000 nM | 1 to 1.25 | * (means≥1 and <1.25) |

The next lines start with results.

| EC50 ([1]; Table B, read-out: EC50, WT HD Luciferase) | EC50 ([2]; Table B, read-out: EC50, mut HD Luciferase) | EC50 [1, 3] | EC50 [2, 4] | EC50 [1, 5] | EC50 [2, 6] | SMILES | maximal fold induction ([1]; Homo sapiens, SH-SY5Y, Table B) | HD Luciferase (mut, Emax) ([2]; Table B) |
| --- | --- | --- | --- | --- | --- | --- | --- | --- |
| – | – | 50 to 100 nM | 100 to 500 nM | – | – | O=C(O)C[C@H](O)C[C@H](O)/C=C/c1c(-c2ccc(F)cc2)cc(C23CC(C2)C3)nc1C1CC1 [II-16, (3R,5S,E)-7-(6-(bicyclo[1.1.1]pentan-1-yl)-2-cyclopropyl-4-(4-fluorophenyl)pyridin-3-yl)-3,5-dihydroxyhept-6-enoic acid] | – | ** (means≥1.25 and <1.5) |
| – | – | 10 to 50 nM | 50 to 100 nM | – | – | O=C(O)C[C@H](O)C[C@H](O)/C=C/c1c(-c2ccc(F)cc2Cl)cc(C2CCC2)nc1C1CC1 [II-7, (3R,5S,E)-7-(4-(2-chloro-4-fluorophenyl)-6-cyclobutyl-2-cyclopropylpyridin-3-yl)-3,5-dihydroxyhept-6-enoic acid] | – | – |
| – | – | 10 to 50 nM | 10 to 50 nM | 100 to 500 nM | 100 to 500 nM | COCc1c(C23CC(C2)C3)nc(C2CC2)c(/C=C/[C@@H](O)C[C@@H](O)CC(=O)O)c1-c1ccc(F)cc1Cl [II-1, (3R,5S,E)-7-(6-(bicyclo[1.1.1]pentan-1-yl)-4-(2-chloro-4-fluorophenyl)-2-cyclopropyl-5-(methoxymethyl)pyridin-3-yl)-3,5-dihydroxyhept-6-enoic acid] | – | **** (means≥1.5 and <1.75) |
| – | – | 10 to 50 nM | 10 to 50 nM | – | – | COCc1c(C2CC2)nc(C2CC2)c(/C=C/[C@@H](O)C[C@@H](O)CC(=O)O)c1-c1c(F)cccc1Cl [II-22, (3R,5S,E)-7-(4-(2-chloro-6-fluorophenyl)-2,6-dicyclopropyl-5-(methoxymethyl)pyridin-3-yl)-3,5-dihydroxyhept-6-enoic acid] | – | – |
| – | – | ≥ 500 nM | ≥ 500 nM | – | – | COCc1c(C2CC2)nc(C)c(/C=C/[C@@H](O)C[C@@H](O)CC(=O)O)c1-c1ccc(F)cc1C [II-26, (3R,5S,E)-7-(6-cyclopropyl-4-(4-fluoro-2-methylphenyl)-5-(methoxymethyl)-2-methylpyridin-3-yl)-3,5-dihydroxyhept-6-enoic acid] | 1 to 1.25 | * (means≥1 and <1.25) |
| – | – | ≤ 10 nM | ≤ 10 nM | – | – | COCc1c(C2CC2)nc(C2CC2)c(/C=C/[C@@H](O)C[C@@H](O)CC(=O)O)c1-c1ccc(F)cc1C [II-10, (3R,5S,E)-7-(2,6-dicyclopropyl-4-(4-fluoro-2-methylphenyl)-5-(methoxymethyl)pyridin-3-yl)-3,5-dihydroxyhept-6-enoic acid] | – | – |
